In series [1] the test system is SF-268. In words: Cytotoxicity against human SF-268 cells assessed as inhibition of cell proliferation measured after 72 hrs by resazurin dye based AlamarBlue assay. The format is functional. Conditions: SF-268, 72 h. Background: The colour change of resazurin is a common sign of viable cells or microbes.
Series [2] has as its system MCF7. The series is described as follows: Cytotoxicity against human MCF7 cells assessed as inhibition of cell proliferation measured after 72 hrs by resazurin dye based AlamarBlue assay. The format is functional. Conditions: MCF7, 72 h.
The subject of series [3] is WI-38. The series is described as follows: Cytotoxicity against human WI-38 cells assessed as inhibition of cell proliferation measured after 72 hrs by resazurin dye based AlamarBlue assay. The note with it: WI-38, 72 h.
Series [4] deals with PC-3M. The series is described as follows: Cytotoxicity against human PC-3M cells assessed as inhibition of cell proliferation up to 10 uM measured after 72 hrs by resazurin dye based AlamarBlue assay. It is filed as functional.
In series [5] the test system is NCI-H460. In words: Cytotoxicity against human NCI-H460 cells assessed as inhibition of cell proliferation up to 10 uM measured after 72 hrs by resazurin dye based AlamarBlue assay. It is filed as functional.
Series [6] relates to SF-268. The series is described as follows: Cytotoxicity against human SF-268 cells assessed as inhibition of cell proliferation up to 10 uM measured after 72 hrs by resazurin dye based AlamarBlue assay. It is filed as functional.
The subject of series [7] is MCF7. In words: Cytotoxicity against human MCF7 cells assessed as inhibition of cell proliferation up to 10 uM measured after 72 hrs by resazurin dye based AlamarBlue assay. The format is functional.
The subject of series [8] is MDA-MB-231. The series is described as follows: Cytotoxicity against human MDA-MB-231 cells assessed as inhibition of cell proliferation up to 10 uM measured after 72 hrs by resazurin dye based AlamarBlue assay. It is filed as functional.
The test system of series [9] is WI-38. The series is described as follows: Cytotoxicity against human WI-38 cells assessed as inhibition of cell proliferation up to 10 uM measured after 72 hrs by resazurin dye based AlamarBlue assay. The note with it: wi-38, 72 h.
The subject of series [10] is Candida albicans. The series is described as follows: Antifungal activity against Candida albicans ATCC 10261 assessed as inhibition of fungal growth at 100 ug/ml incubated for 24 hrs by CLSI method relative to control. The format is functional.
Series [11] relates to Candida albicans. In words: Antifungal activity against Candida albicans ATCC 10261 assessed as inhibition of fungal growth at 50 ug/ml incubated for 24 hrs by CLSI method relative to control. It is filed as functional.
Series [12] relates to PC-3M. In words: Cytotoxicity against human PC-3M cells assessed as inhibition of cell proliferation measured after 72 hrs by resazurin dye based AlamarBlue assay. It is filed as functional.
The test system of series [13] is NCI-H460. In words: Cytotoxicity against human NCI-H460 cells assessed as inhibition of cell proliferation measured after 72 hrs by resazurin dye based AlamarBlue assay. It is filed as functional. Conditions: NCI-H460, 72 h.
Series [14] has as its system MDA-MB-231. The series is described as follows: Cytotoxicity against human MDA-MB-231 cells assessed as inhibition of cell proliferation measured after 72 hrs by resazurin dye based AlamarBlue assay. The format is functional. The note with it: MDA-MB-231, 72 h.
Series [15] deals with Escherichia coli. In words: Antibacterial activity against Escherichia coli ATCC 25922 assessed as inhibition of bacterial growth incubated for 24 hrs by CLSI method. It is filed as functional.
The subject of series [16] is Pseudomonas aeruginosa. The series is described as follows: Antibacterial activity against Pseudomonas aeruginosa ATCC 10197 assessed as inhibition of bacterial growth incubated for 24 hrs by CLSI method. The format is functional.
A further series has as its system Staphylococcus aureus. The series is described as follows: Antibacterial activity against Staphylococcus aureus ATCC 25923 assessed as inhibition of bacterial growth incubated for 24 hrs by CLSI method. The format is functional.
Series [17] has as its system Candida albicans. The series is described as follows: Antifungal activity against Candida albicans ATCC 10261 assessed as inhibition of fungus growth incubated for 24 hrs by CLSI method. The format is functional.
Series [18] has as its system Pseudomonas aeruginosa. The series is described as follows: Antibacterial activity against Pseudomonas aeruginosa ATCC 10197 assessed as inhibition of bacterial growth at 25 ug/ml incubated for 24 hrs by CLSI method relative to control. It is filed as functional.
In series [19] the test system is Escherichia coli. The series is described as follows: Antibacterial activity against Escherichia coli ATCC 25922 assessed as inhibition of bacterial growth at 12.5 ug/ml incubated for 24 hrs by CLSI method relative to control. The format is functional.
Series [20] deals with Candida albicans. The series is described as follows: Antifungal activity against Candida albicans ATCC 10261 assessed as inhibition of fungal growth at 12.5 ug/ml incubated for 24 hrs by CLSI method relative to control. The format is functional.
The test system of series [21] is Candida albicans. The series is described as follows: Antifungal activity against Candida albicans ATCC 10261 assessed as inhibition of fungal growth at 6.25 ug/ml incubated for 24 hrs by CLSI method relative to control. It is filed as functional.

Molecules are shown by their SMILES. Converted amounts (≈) assume the structure as drawn. The source made the active and inactive calls.

Turning to `COC1=C[C@@H](O)[C@H]2O[C@H]2C1=O`, the values for the IC50 with SF-268 [1], with MCF7 [2] and in the series with WI-38 [3] were 1700 nM, 1600 nM and 3800 nM, respectively.
As for `CCCCCCC(=O)C(O)C(O)/C=C/C=C/C=C\C(=O)O` (configuration not stated), the outcome in the series on PC-3M [4], with NCI-H460 [5], with SF-268 [6], with MCF7 [7] and with MDA-MB-231 [8] was inactive. The Activity result in the series on WI-38 [9] is on record as “Non-Toxic”.
Regarding `COC1=CC(=O)[C@@]2([C@@H](O)C=C(C)C)O[C@H]2[C@H]1O`, the outcome in the series with PC-3M [4], with NCI-H460 [5], with SF-268 [6], in the series on MCF7 [7] and with MDA-MB-231 [8] was inactive. In addition, the Activity entry in the series with WI-38 [9] is “Non-Toxic”.
Consider `COC1=CC(=O)[C@H]2O[C@H]2[C@H]1O`, for which the result in the series with PC-3M [4], in the series with NCI-H460 [5], in the series on SF-268 [6], in the series on MCF7 [7] and in the series on MDA-MB-231 [8] was inactive. Moreover, in the series with WI-38 [9], the Activity entry is “Non-Toxic”. For the same compound, in the series with Candida albicans [10], the inhibition (in general, the percentage by which the read-out fell short of the control) at 100 µg/mL came to 75%. Besides, in the series on Candida albicans [11], the inhibition at 50 µg/mL came to 50%.
On to `COC1=CC(=O)[C@@]2([C@H](O)C=C(C)C)O[C@H]2C1=O`, for which the 50% inhibitory concentration (IC50) (as a rule, the midpoint of a concentration-inhibition curve) was 4600 nM in the series with PC-3M [12]; 4800 nM in the series on NCI-H460 [13]; 1300 nM in the series with SF-268 [1]; 1600 nM in the series on MCF7 [2]; 2600 nM with MDA-MB-231 [14]; 8300 nM with WI-38 [3].
For `COc1cccc2c1C(=O)c1c(O)c3c(c(O)c1C2=O)C[C@@](O)(C(=O)CO)C[C@@H]3O[C@H]1C[C@H](N)[C@H](O)[C@H](C)O1` [DOXORUBICIN], the half-inhibitory concentration (IC50) in the series with PC-3M [12] was found to be 300 nM; in the series with NCI-H460 [13], 100 nM; in the series on MDA-MB-231 [14], 700 nM.
On to `COC1=CC(=O)[C@@](O)([C@@H](C=C(C)C)OC(C)=O)CC1=O`, for which the outcome in the series on PC-3M [4], with NCI-H460 [5], with SF-268 [6], with MCF7 [7] and with MDA-MB-231 [8] was inactive. Also, the Activity result with WI-38 [9] is reported as “Non-Toxic”.
In the case of `COC1=CC(=O)C(O)(C(O)CC(C)(C)O)C[C@H]1O` (some centres not stated), the outcome with PC-3M [4], in the series with NCI-H460 [5], with SF-268 [6], with MCF7 [7] and in the series with MDA-MB-231 [8] was inactive. Further, the Activity result in the series with WI-38 [9] is listed as “Non-Toxic”.
Consider `COC1=CC(=O)[C@@]2([C@H](C=C(C)C)OC(C)=O)O[C@]3(OC)CC(=O)[C@H]4O[C@H]4[C@]3(O)[C@H]2C1=O`, for which the half-inhibitory concentration (IC50) in the series on PC-3M [12] amounted to 6000 nM; with SF-268 [1], 2700 nM; with MCF7 [2] it was 2900 nM; in the series with MDA-MB-231 [14] it was 6000 nM. For the same compound, the outcome in the series on NCI-H460 [5] was inactive. Moreover, in the series on WI-38 [9], the Activity result is given as “Non-Toxic”.
For `COC1=CC(=O)[C@](O)([C@H](C=C(C)C)OC(C)=O)C[C@H]1O`, the result in the series on PC-3M [4], in the series on NCI-H460 [5], in the series with SF-268 [6], with MCF7 [7] and in the series on MDA-MB-231 [8] was inactive. Moreover, the Activity result in the series with WI-38 [9] is listed as “Non-Toxic”.
As to `COC1=CC(=O)[C@H]2O[C@H]2C1=O`, the IC50 in the series with PC-3M [12] is 2500 nM; in the series with NCI-H460 [13], 2500 nM; with SF-268 [1] it was 1200 nM; with MCF7 [2], 1400 nM; in the series with MDA-MB-231 [14], 2200 nM; in the series with WI-38 [3], 7800 nM. Besides, the minimum bactericidal concentration (MBC) (as a rule, the smallest concentration meeting the test's criterion for killing) in the series with Escherichia coli [15] was determined as 25 µg/mL (≈ 162 µM). The minimal inhibitory concentration (MIC) in the series with Escherichia coli [15], with Pseudomonas aeruginosa [16], in the series on Staphylococcus aureus and in the series with Candida albicans [17] was 25 µg/mL (≈ 162 µM) throughout. Also, the minimal fungicidal concentration (MFC) – broadly, the lowest tested concentration that kills the fungus rather than only halting it – with Candida albicans [17] worked out at 25 µg/mL (≈ 162 µM). Further, the inhibition at 25 µg/mL in the series with Pseudomonas aeruginosa [18] is 50%. In addition, the inhibition at 12.5 µg/mL in the series on Escherichia coli [19] and in the series with Candida albicans [20] was 75% throughout. Also, in the series with Candida albicans [21], the inhibition at 6.25 µg/mL was 50%.
